Laboratory results as given in ChEMBL document CHEMBL1201862, “PubChem BioAssay data set” (2004).
Blank lines part the entries; values can stand above or below the compound they belong to. Active and inactive are the calls of the source.

What was measured:
Cytochrome P450 1A2 = target: T1, Cytochrome P450 1A2 (Homo sapiens, UniProt P05177);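 further: PubChem cytochrome P450 panel assay, CYP1A2 panel member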
T1 sequence (P05177 whole entry): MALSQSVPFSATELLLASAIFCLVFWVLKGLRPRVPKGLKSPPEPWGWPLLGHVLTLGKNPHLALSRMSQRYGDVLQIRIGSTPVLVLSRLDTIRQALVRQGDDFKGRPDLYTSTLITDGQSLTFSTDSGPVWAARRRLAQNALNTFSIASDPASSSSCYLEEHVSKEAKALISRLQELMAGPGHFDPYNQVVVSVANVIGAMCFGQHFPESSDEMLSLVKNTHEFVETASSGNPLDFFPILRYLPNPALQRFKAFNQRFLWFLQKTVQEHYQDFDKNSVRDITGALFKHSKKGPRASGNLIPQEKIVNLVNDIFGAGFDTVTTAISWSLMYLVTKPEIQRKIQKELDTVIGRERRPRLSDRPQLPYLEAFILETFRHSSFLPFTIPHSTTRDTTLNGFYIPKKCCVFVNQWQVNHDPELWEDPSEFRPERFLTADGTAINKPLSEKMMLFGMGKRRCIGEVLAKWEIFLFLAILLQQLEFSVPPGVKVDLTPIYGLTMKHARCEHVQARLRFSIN

Cytochrome P450 2C9 = Cytochrome P450 2C9 (Homo sapiens, UniProt P11712)
Sequence of Cytochrome P450 2C9 (P11712 whole entry): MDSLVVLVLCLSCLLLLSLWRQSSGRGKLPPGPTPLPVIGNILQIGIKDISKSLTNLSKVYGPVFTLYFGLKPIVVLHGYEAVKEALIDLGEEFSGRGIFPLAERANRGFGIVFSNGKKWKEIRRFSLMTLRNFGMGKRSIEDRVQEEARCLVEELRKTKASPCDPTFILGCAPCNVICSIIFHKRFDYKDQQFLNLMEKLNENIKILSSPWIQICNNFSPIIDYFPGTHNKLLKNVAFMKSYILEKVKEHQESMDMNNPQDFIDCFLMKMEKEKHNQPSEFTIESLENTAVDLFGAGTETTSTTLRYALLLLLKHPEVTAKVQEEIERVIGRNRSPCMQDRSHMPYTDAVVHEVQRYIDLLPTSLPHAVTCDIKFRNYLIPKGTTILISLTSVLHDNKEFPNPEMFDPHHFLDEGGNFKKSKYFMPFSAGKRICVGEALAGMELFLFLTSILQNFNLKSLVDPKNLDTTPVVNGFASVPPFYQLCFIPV

Cytochrome P450 2C19 = Cytochrome P450 2C19 (Homo sapiens, UniProt P33261); test: Cytochrome panel assay with activity outcomes. Panel member name: p450-cyp2c19 Compounds with AC50 equal or less than 10 uM are considered active; type: functional; conditions: read-out: AC50
Sequence of Cytochrome P450 2C19 (P33261 whole entry): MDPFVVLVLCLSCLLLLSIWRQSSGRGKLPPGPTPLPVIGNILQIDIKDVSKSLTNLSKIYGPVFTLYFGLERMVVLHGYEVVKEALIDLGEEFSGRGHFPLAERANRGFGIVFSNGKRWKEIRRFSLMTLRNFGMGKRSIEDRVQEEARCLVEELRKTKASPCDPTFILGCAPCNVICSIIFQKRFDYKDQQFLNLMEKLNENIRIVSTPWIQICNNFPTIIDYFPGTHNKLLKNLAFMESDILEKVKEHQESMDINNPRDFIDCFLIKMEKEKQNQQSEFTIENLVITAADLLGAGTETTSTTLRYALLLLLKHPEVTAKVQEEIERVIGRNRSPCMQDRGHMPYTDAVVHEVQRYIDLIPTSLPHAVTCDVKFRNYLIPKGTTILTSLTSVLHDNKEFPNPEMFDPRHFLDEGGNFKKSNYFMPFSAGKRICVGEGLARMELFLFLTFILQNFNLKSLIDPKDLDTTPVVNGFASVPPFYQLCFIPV

Leucine aminopeptidase = target: T2, Leucine aminopeptidase (Plasmodium falciparum 3D7, UniProt Q8IL11); test: P. falciparum M17LAP inhibitors, primary screen, biochemical, fluorogenic H-Leu-NHMec substrate, 1536-well (AID 1619); type: functional
T2 sequence (Q8IL11 whole entry): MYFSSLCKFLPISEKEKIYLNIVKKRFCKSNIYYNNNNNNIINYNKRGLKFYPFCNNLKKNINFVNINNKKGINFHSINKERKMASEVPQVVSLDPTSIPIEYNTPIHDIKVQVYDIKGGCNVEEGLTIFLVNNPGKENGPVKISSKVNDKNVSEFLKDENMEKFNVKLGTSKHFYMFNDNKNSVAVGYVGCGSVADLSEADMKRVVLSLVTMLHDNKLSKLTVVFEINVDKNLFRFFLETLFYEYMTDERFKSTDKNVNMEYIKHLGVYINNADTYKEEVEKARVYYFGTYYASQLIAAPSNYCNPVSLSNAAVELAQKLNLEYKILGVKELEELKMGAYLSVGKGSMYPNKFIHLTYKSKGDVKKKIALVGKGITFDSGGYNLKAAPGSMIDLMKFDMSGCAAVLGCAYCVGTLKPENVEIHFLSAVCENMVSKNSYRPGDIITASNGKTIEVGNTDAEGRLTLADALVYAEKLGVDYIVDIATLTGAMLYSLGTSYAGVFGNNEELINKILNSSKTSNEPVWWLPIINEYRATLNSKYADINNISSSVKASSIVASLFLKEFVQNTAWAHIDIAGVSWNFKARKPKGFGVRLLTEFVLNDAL

[1] = target: 5-hydroxytryptamine receptor 5A (Homo sapiens, UniProt P47898); test: Counterscreen for agonists of OPRM1-OPRD1 heterodimerization: luminescence-based cell-based high throughput dose response assay to identify agonists of 5-hydroxytryptamine (serotonin) 5A receptor (HTR5A). [Related pubchem assays (depositor defined):AID504326, AID504355, AID504692, AID504904, AID504905]; type: functional
Sequence of 5-hydroxytryptamine receptor 5A (P47898 whole entry): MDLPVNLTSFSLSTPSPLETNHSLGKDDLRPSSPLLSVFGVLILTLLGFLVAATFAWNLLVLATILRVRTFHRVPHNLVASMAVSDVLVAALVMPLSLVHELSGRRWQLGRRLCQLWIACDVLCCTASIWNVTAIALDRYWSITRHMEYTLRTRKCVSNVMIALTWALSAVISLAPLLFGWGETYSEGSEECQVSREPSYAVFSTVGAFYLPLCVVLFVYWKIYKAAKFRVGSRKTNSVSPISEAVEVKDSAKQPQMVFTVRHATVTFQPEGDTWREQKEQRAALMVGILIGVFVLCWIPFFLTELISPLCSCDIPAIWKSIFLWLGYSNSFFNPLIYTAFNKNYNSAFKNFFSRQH

[2] = target: T3, DNA repair protein RAD52 homolog (Homo sapiens, UniProt P43351); type: functional, biochemical
T3 sequence (P43351 whole entry): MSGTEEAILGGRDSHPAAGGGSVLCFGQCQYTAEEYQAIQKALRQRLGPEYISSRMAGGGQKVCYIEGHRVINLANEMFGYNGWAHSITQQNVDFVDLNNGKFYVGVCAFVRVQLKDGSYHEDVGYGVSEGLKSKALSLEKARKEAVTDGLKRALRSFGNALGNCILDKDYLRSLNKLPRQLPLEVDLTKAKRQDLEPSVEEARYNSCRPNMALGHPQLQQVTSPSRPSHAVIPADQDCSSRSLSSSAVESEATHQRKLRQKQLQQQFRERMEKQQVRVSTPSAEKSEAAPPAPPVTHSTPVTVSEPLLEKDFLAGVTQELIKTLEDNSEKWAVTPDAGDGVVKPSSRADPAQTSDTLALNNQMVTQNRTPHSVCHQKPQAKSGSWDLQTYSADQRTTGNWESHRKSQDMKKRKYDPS

Mu-type opioid receptor = Mu-type opioid receptor (Homo sapiens, UniProt P35372); test: (§1) Counterscreen for agonists of heterodimerization of the mu 1 (OPRM1) and delta 1 (OPRD1) opioid receptors: Luminescence-based cell-based high throughput dose response assay to identify agonists of OPRM1 homodimerization.; type: functional
Sequence of Mu-type opioid receptor (P35372 whole entry): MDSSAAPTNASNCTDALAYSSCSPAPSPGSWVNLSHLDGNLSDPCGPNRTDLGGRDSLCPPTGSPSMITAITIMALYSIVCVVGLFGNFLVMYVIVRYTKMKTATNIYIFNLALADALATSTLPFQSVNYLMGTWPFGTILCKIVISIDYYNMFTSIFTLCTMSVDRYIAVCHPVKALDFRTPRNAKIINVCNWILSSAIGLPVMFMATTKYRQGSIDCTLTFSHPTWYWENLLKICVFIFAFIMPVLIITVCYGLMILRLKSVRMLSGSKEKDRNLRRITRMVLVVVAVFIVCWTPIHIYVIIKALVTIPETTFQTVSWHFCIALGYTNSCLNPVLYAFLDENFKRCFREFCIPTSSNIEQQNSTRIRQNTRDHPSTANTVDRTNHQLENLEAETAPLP

[3] = target: Delta-type opioid receptor (Homo sapiens, UniProt P41143); test: as §1, with “of OPRD1” for “of OPRM1”, “homodimerization. [Related pubchem assays (depositor defined):AID504326, AID504355, AID504692, AID504904, AID504905]” for “homodimerization.”; type: functional
Sequence of Delta-type opioid receptor (P41143 whole entry): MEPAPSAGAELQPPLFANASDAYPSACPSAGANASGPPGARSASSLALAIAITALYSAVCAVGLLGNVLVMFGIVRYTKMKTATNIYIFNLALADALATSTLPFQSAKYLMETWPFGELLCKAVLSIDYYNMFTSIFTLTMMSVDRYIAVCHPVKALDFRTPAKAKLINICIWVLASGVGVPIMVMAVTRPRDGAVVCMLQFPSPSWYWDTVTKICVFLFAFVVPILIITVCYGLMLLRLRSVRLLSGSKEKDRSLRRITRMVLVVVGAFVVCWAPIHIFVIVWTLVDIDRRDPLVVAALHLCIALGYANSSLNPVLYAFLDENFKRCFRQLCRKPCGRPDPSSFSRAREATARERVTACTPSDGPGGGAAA

[4] = target: T4, Short transient receptor potential channel 4 (Mus musculus, UniProt Q9QUQ5); test: mouse TRPC4 channel activators, dose response, cell-based, HEK293 TRPC4/mu-opioid, Fluo-4 calcium (AID 434937); type: functional
T4 sequence (Q9QUQ5 whole entry): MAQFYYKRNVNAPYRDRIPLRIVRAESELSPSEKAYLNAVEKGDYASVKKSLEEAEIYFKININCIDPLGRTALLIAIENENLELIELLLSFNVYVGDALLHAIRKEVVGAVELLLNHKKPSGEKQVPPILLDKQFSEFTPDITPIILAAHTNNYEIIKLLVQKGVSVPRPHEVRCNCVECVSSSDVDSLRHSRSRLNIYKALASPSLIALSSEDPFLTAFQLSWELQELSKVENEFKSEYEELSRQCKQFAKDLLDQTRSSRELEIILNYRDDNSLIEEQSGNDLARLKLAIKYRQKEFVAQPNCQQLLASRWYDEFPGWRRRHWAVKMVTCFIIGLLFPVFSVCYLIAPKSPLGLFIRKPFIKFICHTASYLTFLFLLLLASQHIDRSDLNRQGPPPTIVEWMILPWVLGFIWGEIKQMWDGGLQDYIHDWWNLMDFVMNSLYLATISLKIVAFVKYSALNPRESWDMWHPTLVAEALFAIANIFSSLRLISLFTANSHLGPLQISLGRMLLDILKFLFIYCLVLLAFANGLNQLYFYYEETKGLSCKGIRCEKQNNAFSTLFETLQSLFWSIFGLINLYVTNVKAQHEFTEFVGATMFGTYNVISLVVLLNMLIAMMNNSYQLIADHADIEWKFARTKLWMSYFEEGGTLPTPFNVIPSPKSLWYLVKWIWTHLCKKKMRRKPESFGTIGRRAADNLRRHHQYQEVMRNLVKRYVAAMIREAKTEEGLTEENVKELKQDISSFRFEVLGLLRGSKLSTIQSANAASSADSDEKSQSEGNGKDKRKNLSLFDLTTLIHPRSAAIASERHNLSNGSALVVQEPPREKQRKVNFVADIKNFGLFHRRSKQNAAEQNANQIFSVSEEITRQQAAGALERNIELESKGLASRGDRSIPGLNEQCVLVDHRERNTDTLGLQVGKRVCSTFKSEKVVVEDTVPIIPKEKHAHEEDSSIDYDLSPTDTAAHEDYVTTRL

[5] = target: Alkaline phosphatase, placental type (Homo sapiens, UniProt P05187); test: PLAP enzyme inhibitors, confirmation, biochemical, luminescence (AID 1512); type: functional
Sequence of Alkaline phosphatase, placental type (P05187 whole entry): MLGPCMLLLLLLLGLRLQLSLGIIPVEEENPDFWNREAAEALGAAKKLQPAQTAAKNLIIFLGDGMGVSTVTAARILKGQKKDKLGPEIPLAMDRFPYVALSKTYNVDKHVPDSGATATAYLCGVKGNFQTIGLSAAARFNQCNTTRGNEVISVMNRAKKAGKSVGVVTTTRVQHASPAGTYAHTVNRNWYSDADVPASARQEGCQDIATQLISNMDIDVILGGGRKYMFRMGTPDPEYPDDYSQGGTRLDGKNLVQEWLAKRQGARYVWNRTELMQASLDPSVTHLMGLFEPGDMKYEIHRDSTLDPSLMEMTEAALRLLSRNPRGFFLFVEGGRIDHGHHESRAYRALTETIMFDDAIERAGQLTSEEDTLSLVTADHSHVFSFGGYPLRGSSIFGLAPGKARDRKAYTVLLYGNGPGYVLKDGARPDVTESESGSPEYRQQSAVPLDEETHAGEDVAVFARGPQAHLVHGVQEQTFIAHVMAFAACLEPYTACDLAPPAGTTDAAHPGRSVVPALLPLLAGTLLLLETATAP

Paired box protein Pax-8 = Paired box protein Pax-8 (Homo sapiens, UniProt Q06710); test: inhibitors of PAX8-driven TPO luciferase reporter, dose response, RMG-I cells, cherry-pick (AID 687027); type: functional, cell-based;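 further: luciferase reporter driven by Pax8 target thyroperoxidase promoter measured by SteadyGlo luminescence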
Sequence of Paired box protein Pax-8 (Q06710 whole entry): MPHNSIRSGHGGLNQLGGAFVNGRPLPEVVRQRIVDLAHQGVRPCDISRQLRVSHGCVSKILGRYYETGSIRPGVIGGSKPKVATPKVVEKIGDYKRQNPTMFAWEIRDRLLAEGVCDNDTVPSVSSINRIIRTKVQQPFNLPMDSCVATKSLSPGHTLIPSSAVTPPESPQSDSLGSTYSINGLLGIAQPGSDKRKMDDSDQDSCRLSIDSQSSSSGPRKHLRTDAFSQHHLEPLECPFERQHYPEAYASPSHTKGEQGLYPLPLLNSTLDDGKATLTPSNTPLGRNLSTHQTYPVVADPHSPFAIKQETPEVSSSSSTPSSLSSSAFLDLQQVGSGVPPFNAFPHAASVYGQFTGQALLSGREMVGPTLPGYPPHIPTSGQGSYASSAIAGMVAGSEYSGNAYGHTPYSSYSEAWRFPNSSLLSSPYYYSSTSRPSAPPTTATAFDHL

[6] = IGROV1 ovarian cancer cell cytotoxicity, dose response, PAX8 inhibitor project, plate reader, dry powder samples (AID 743043); type: functional, cell-based; conditions: IGROV-1

AC50 (Cytochrome P450 1A2): 15.8 µM (inconclusive)
AC50 (Cytochrome P450 2C9): 12.6 µM (inconclusive)
AC50 (Cytochrome P450 2C19): 20 µM (inconclusive)
IC50 (Leucine aminopeptidase): 40.7 µM (active)
SMILES: Cc1ccc(N(CC(N)=O)C2SC(=O)N(Cc3cccc(C(=O)O)c3)C2=O)cc1 (stereo unspecified)

IC50 (Leucine aminopeptidase): 18.2 µM (active)
SMILES: Cc1cc(C(=O)COC(=O)c2ccc[nH]c2=O)c(C)n1CCc1ccc(F)cc1

IC50 [5]: > 100 µM (inactive)
SMILES: Cc1ccc(-n2ncc3c(NNC(=O)c4ccco4)ncnc32)c(C)c1

More lines, now with the values behind:

SMILES: CC1CN(C)C(C)c2c1oc1ccc(N)cc21 (stereo unspecified)
EC50 [1]: > 92.5 µM (inactive)
AC50 [2]: 9.06 µM (active)
EC50 (Mu-type opioid receptor): > 92.5 µM (inactive)
EC50 [3]: > 92.5 µM (inactive)
EC50 [4]: 0.841 µM (active)

SMILES: CCOc1ccc(NC(=O)CSc2nnc(N)s2)c([N+](=O)[O-])c1
IC50 (Leucine aminopeptidase): 2.52 µM (active)

SMILES: CCOC(=O)C(CSCC(=O)c1ccc(Br)cc1)NC(=O)OC(C)(C)C (stereo unspecified)
IC50 (Leucine aminopeptidase): 62.2 µM (active)

SMILES: C[C@@H]1ON(C)[C@H]2C[C@H]3c4cc(-c5cc6ccccc6o5)ccc4CCN3C[C@@H]12
AC50 [2]: 28.7 µM (active)

SMILES: C[C@H](CO)N1C[C@H](C)[C@H](CN(C)S(=O)(=O)c2ccc(F)cc2)OCCCC[C@H](C)Oc2ccc(NS(=O)(=O)c3ccc(Cl)cc3)cc2C1=O
AC50 (Paired box protein Pax-8): 10.1 µM (active)
AC50 [6]: 54.7 µM (active)
